# Experimental data taken from patent US9492554B2, “Methods and compositions related to viral inhibition” (Clemson University Research Foundation (CURF), priority 2009, dated 2016).
# Where two headings read alike, the source gives them in different places.
# Columns and labels:
# [1] = tested on: HIVNL4-3 in MT-2 cells; experiment: HIV antigen synthesis in treated cells, immunofluorescence assay (IFA); assay type: cell-based; details: for percentage of cells positive for HIV antigens, Day 2: MT-2 cells, microM: DPA119 24, DPA52 25, DPA53 9, DPA54 17, DPA55 4, DPA56 8, DPA121 25, virus control 15%; for percentage of cells positive for HIV antigens, Day 4 / percentage of cells positive for HIV antigens, Day 6: same concentrations, virus control 100%
# Description: (§1) Anti-HIV activities can be routinely checked by measuring the percentage of cells positive for HIV antigens using immunofluorescence assay (IFA) and for the release of pelletable reverse transcriptase (RT) into the supernatant. For these assays, 500,000 MT-2 cells in 1 ml of media were added to the wells of a 24 well tissue culture plate. Next, 0.5 ml of 4× concentrated compound was added to triplicate wells of the plate. The cells and compounds were incubated for 1 hr at 37 C. Finally, 0.5 ml of HIVNL4-3, produced in H9 cells (a CD4+ lymphoblastoid cell line), 100,000 cpm of RT activity per well, was added to each well. Virus control wells contained no compounds. This inoculum is at a multiplicity of infection less than 1. On days 2, 4, and 6, 0.75 mls of supernatants were removed and placed into individual microfuge tubes for RT assay. Next, cells were resuspended in the media and 0.5 mls of the total remaining volume was removed for IFA. Cells were combined from their triplicate infections, pelleted, and the enriched cells were air-dried onto glass slides. The dried cells were fixed in acetonemethanol (50:50). After fixing, cells were stained with HIV immunoglobulin, washed in PBS, and counter-stained with FITC-conjugated goat and human IgG. Slides were washed in PBS and the percentage of HIV-positive cells was determined by epifluorescence (Robinson et al. J Acquire Immune Defic Syndr 2:33-42, 1989).
# [2] = tested on: cells
# [3] = tested on: TAR RNA; experiment: UV melting of TAR RNA in presence of ligands (Tm, ΔTm); assay type: binding, HIV-1
# Description: The reactions were done in the presence of 10 mM sodium cacodylate, 0.5 mM EDTA, 0.1 mM MgCl2 pH 7.0. The heating rate was 0.3° C./min.
# (§2) UV melting studies of TAR were performed in the presence and absence of various ligands (FIG. 13).
# [4] = tested on: HIV; experiment: Protection from HIV cytopathic effects; assay type: cell-based; details: for Maximum protection: maximum protection from HIV cytopathic effects, water control 2%; for concentration at which maximum protection achieved, microM: value in parentheses beside maximum protection
# [5] = molecular target: HIV-1 TAR RNA; experiment: HIV-1 TAR RNA competition FRET binding assay (Tat peptide probe); details: 100 nM TAR RNA, 100 nM Tat peptide, 25° C., 60 min
# Description: Before used, HIV-1 TAR RNA (5′-GGC AGA UCUGAG CCU GGG AGC UCU CUG CC-3′, Thermo Scientific) in 10 μM batch in sterile water was heated to 95° C. for 4.5 min, and then cooled rapidly in ice bath for 5 min. This snap-cooling causes the RNA to adopt the kinetically favored hairpin rather than thermodynamically favored duplexes.
# The relative affinity of each polyamine for HIV-1 TAR RNA was determined using Fluorescence Resonance Energy Transfer (FRET)-based competitive binding assay with a fluorescein-labeled HIV-1 Tat peptide as described in the literature. The fluorescence experiments were performed with a Spectra Max Fluorimeter (Molecular Devices) at 25° C., with excitation and emission wavelengths of 495 and 570 nm, respectively. All samples were prepared in 96 well plates in 1×TK buffer (50 mM Tris, 20 mM KCl, pH=7.4) with 0.1% Trixton-100 (Sigma).
# To a solution of 100 nM HIV-1 TAR RNA and 100 nM fluorescein-labeled HIV-1 Tat peptide, appropriate concentrations (0 nM to 100 μM) of the antagonists were added at 25° C.; total volume of the incubation solution was 80 μL. After 60 min, fluorescence changes of the sample solution were determined by the Spectra Max Fluorimeter Detector.
# [6] = tested on: HIVNL4-3 in MT-2 cells; experiment: Release of reverse transcriptase into the culture supernatant; assay type: cell-based, HIV; details: for Release of reverse transcriptase into the culture supernatant, Day 2: mean of triplicate infections (SD), microM: DPA119 24, DPA52 25, DPA53 9, DPA54 17, DPA55 4, DPA56 8, DPA121 25, virus control 46,029; for Release of reverse transcriptase into the culture supernatant, Day 4 / Release of reverse transcriptase into the culture supernatant, Day 6: mean of triplicate infections; for Release of reverse transcriptase into the culture supernatant, Day 4: virus control 928,112; for Release of reverse transcriptase into the culture supernatant, Day 6: virus control 1,078,741
# Source text: as §1, with “The disclosed conjugates also reduce the amount of reverse transcriptase (RT) released into the cell culture supernatant upon in vitro cell culture experiments (Table 14 below). […] It is possible that even though the cells are positive for HIV, they are making much fewer unspliced transcripts, and thus the virion release into the media remains suppressed. […] Anti-HIV” for “Anti-HIV”, “On days 2, 4, and 6, 0.75 mls of supernatants were removed and placed into individual microfuge tubes for RT assay.” left out, “[…] The supernatants from each well were precipitated at 4 C overnight in a solution including 30% polyethylene glycol. After precipitation, precipitate was lysed in a solution containing Triton X100, Tris buffer, and DTT. RT activity of each aliquot was determined as incorporation of 3H-dTTP into a poly rA-oligo dT template. After a one hour assay at 37 C, the incorporated dTTP was precipitated onto a ZetaProbe (BioRad) membrane. Slots were excised and placed into liquid scintillation cocktail. After overnight incubation, counts per minute for each sample was determined on a beta counter. Results were calculated as cpm/ml of original culture supernatant (Robinson et al.” for “J Acquire Immune Defic Syndr 2:33-42, 1989).”
# [7] = molecular target: TAR; details: argininamide binding site of TAR; read-out: binding constant; cited from earlier work
# [8] = tested on: TAR; details: ligands to TAR, from UV melting studies
# Description: The bottom line represents the control which is TAR without any ligands. […] The reactions were done in the presence of 10 mM sodium cacodylate, 0.5 mM EDTA, 0.1 mM MgCl2 pH 7.0. The heating rate was 0.3° C./min.
# as §2
# [9] = molecular target: site 1 thymidylate synthetase RNA; details: CC bubble of site 1 thymidylate synthetase RNA; read-out: binding constant; cited from earlier work
# [10] = tested on: cells; experiment: 5% Toxicity concentration (concentration at which 5% or less cell death is seen)
# [11] = tested on: TAR RNA; experiment: ITC titration of TAR RNA with Neomycin; assay type: binding, HIV-1; details: 20° C.
# [12] = tested on: TAR RNA; details: inhibition of Tat peptide binding to the TAR RNA; cited from earlier work
# [13] = molecular target: TAR; details: binds TAR; read-out: affinity; cited from earlier work
# [14] = molecular target: HIV-1 RRE RNA; experiment: HIV-1 RRE RNA competition binding assay (fluorescence polarization, Rev peptide probe); details: 100 nM RRE RNA, 10 nM Rev peptide, 25° C., 1 hour; Table 16
# Description: Before used, HIV-1 RRE RNA (5′-GGUCUGGGCGCAGCGCAAGCUGACGGUACAGGCC-3′, Thermo Scientific) in 10 μM batch in sterile water was heated to 95° C. for 3 min, and then cooled to ambient temperature over 1 hour.
# The relative affinity of each compound for HIV-1 RRE RNA was determined using fluorescence polarization-based competitive binding assay with a fluorescein-labeled HIV-1 Rev peptide. The anisotropy experiments were performed with a Spectra Max Fluorimeter (Molecular Devices) at 25° C., with excitation and emission wavelengths of 485 and 525 nm, respectively. All samples were prepared in 96 well plates in binding buffer (30 mM Hepes, 100 mM KCl, 40 mM NaCl, 10 mM NH4OAc, 10 mM Guanidinium Hydrochloride, 2 mM MgCl2, 0.5 mM EDTA, pH 7.4) with 0.01% triton-X100 (Sigma). The binding data reported for each conjugate are the averages of 3˜5 individual measurements.
# A solution of 100 nM RRE RNA and 10 nM fluorescein-labeled HIV-1 Rev peptide was incubated at 25° C. After 10 min, appropriate concentrations (0 nM to 500 μM) of the antagonists were added; total volume of the incubation solution was […]. After 1 hour, the amount of the dissociated fluorescent probe was determined by the Spectra Max fluorescence plate reader. The experimental dose-response data for a given antagonist were fit to a sigmoidal dose-response nonlinear regression model on GraphPad Prism 4.0 to afford the IC50 values for each conjugates (Table 16).
Molecule,"percentage of cells positive for HIV antigens, Day 2 [1]","percentage of cells positive for HIV antigens, Day 4 [1]","percentage of cells positive for HIV antigens, Day 6 [1]",5% Toxicity microM [2],IC50 ([5]; Table 17),"Release of reverse transcriptase into the culture supernatant, Day 2 [6]","Release of reverse transcriptase into the culture supernatant, Day 4 [6]","Release of reverse transcriptase into the culture supernatant, Day 6 [6]",Binding Constant [8],Maximum protection [4],"concentration at which maximum protection achieved, microM [4]",IC50 [12],IC50 [14],other results
CN1CCN(c2ccc3nc(-c4ccc(OCCn5cc(COCc6cn(C[C@H]7OC(OC8C(O)[C@H](N)CC(N)[C@H]8O[C@H]8OC(CN)[C@@H](O)C(O)C8N)C(O)C7O[C@H]7OC(CN)[C@@H](O)C(O)C7N)nn6)nn5)cc4)[nH]c3c2)CC1 (some centres unmarked) [DPA119],5-7%,90%,100%,94 µM,0.464 ± 0.146 µM,"16,576 (3,815) cpm/ml","241,955 cpm/ml","399,421 cpm/ml",–,–,–,–,–,"ΔTm (° C.) ([3]; TAR RNA with ligand vs control, Table 10): 4.2 °C; Tm (° C.) ([3]; TAR RNA with ligand, control without ligand 69.3): 73.5 °C; protection from HIV cytopathic effects ([4]; at 24 microM): 16%"
N=C(N)NCCC[C@H](N)C(N)=O [argininamide],–,–,–,–,–,–,–,–,–,–,–,–,–,Kd [7]: ~0.001 µM
CN1CCN(c2ccc3[nH]c(-c4ccc5[nH]c(-c6ccc(O)cc6)nc5c4)nc3c2)CC1 [Hoechst 33258],–,–,–,–,6.6 ± 1.5 µM,–,–,–,420000 M⁻¹,2%,(2) microM,–,–,Kd [9]: < 0.1 µM; 5% Toxicity microM [10]: 18 µM
neomycin,–,–,–,–,0.713 ± 0.165 µM,–,–,–,170000 M⁻¹,9%,(206) microM,0.92 ± 0.09 µM,–,"K [11]: (6.61 ± 0.84) × 10^5; ΔTm ([3]; Melting point stabilization of HIV-TAR RNA by Neo Neo dimers, Table 11): 0.2 °C; Kd [13]: ~6 µM"
"[H]/N=C(/N)N[C@H]1[C@H](O)[C@@H](O)[C@H](O[C@@H]2O[C@@H](C)[C@](O)(C=O)[C@H]2O[C@@H]2O[C@@H](CO)[C@H](O)[C@@H](O)[C@@H]2NC)[C@@H](N/C(N)=N\[H])[C@@H]1O [DPA 506, streptomycin, reference compound]",–,–,–,–,–,–,–,–,–,–,–,9.5 ± 0.8 µM,> 500 µM,IC50 ([5]; Table 18): 17.4 ± 4.3 µM
CN1CCN(c2ccc3nc(-c4ccc(OCCn5cc(CCCCc6cn(C[C@H]7OC(OC8C(O)[C@H](N)CC(N)[C@H]8O[C@H]8OC(CN)[C@@H](O)C(O)C8N)C(O)C7O[C@H]7OC(CN)[C@@H](O)C(O)C7N)nn6)nn5)cc4)[nH]c3c2)CC1 (some centres unmarked) [DPA121],15%,100%,100%,>186 µM,0.686 ± 0.11 µM,"26,499 (5,566) cpm/ml","579,856 cpm/ml","880,573 cpm/ml",–,–,–,–,30.5 ± 11.1 µM,–
